Calls of active or inactive are those of the source. The rule behind the calls is not given here.
Tested on: Jurkat human T cells viability, luminescence (cytotoxicity counterscreen)
Assay: viability loss in human Jurkat cells – cell-based, luminescence, cytotoxicity control, dose response (AID 1117277)

O=C(C[N+]12CCC(CC1)C(OC(=O)c1ccccc1)C2)c1ccc([N+](=O)[O-])cc1 (stereo unspecified)
IC50: > 83.3 µM (inactive)

Reference: PubChem BioAssay AID1117277 (The Scripps Research Institute Molecular Screening Center, 2014)
